According to patent publication US20100022652A1, “Antimicrobial and Anticoagulant Compositions and Methods” (Tyco Healthcare Group LP, priority 2008, published 2010):

Key:
[1] = test system: clot formation in normal anticoagulated plasma; test: Prothrombin time (PT) assay, PT converted to INR; format: biochemical, human; settings: ISI 1.65
Procedure: The Prothrombin Time (PT) Assay primarily measures the time required for the clot formation in a test sample. Per the assay, the test samples first mixed with normal anticoagulated plasma in a ratio of 1:9 and incubated for 2 minutes at Room temperature. Then tissue thromboplastin with calcium ions is added to the test samples. The samples are then incubated for 2 minutes at 37° C. Tissue thromboplastin and calcium ions is added to normal anticoagulated plasma mixed with formulation, to initiate the clotting mechanism leading to formation of a fibrin clot. The coagulation analyzer is utilized to record the PT required for clot formation. The PT so obtained is then converted to International Normalized Ratio (INR) by utilizing the following formula:
INR=(PTTest Sample/PTControl Level 1)^ISI;
wherein ISI (International Sensitivity Index)—indicates the sensitivity of individual thromboplastin. The value of ISI utilized in the anticoagulant investigations reported herein is 1.65.
If the deficiency exists within coagulation pathway (for example test blood contains heparin or other anticoagulant) the time required for clot formation will be prolonged. Any INR values ≧ that of abnormal plasma level 2 (e.g., TriniCHECK™ Level 2; Trinity Biotech) are considered indicative of deficiency within the coagulation pathway, and thus indicative of highly anticoagulative properties. Any INR values higher than 5.5 are considered indicative of highly anticoagulant behavior. Therefore, the strength of an anticoagulant can be characterized by the INR value, i.e., the larger the INR value the stronger the anticoagulant properties.

[2] = test system: Pseudomonas aeruginosa (ATCC 27853); test: Checkerboard titration / micro-dilution antimicrobial synergy evaluation (MIC, FIC); format: cell-based
Procedure: The combinations having an FIC index of ≦0.5 are considered synergistic while a FIC index of >0.5 but ≦1 are considered partially synergistic.
First, potential antimicrobial synergy in a composition having a combination of EDTA and NAC components was investigated with respect to the Pseudomonas aeruginosa (ATCC 27853) microorganism.
According to this method the stock solutions are prepared having a concentration equivalent or higher than twice the MIC of the components among which synergy is to be tested.
As the solutions get turbid, a higher optical density values generated. Generally speaking, increased turbidity, and thus higher optical density readings, are indicative of the presence of micro organisms in the solution. During analysis of the samples, optical density measurements above a predetermined cutoff value is indicative that there are microorganisms present in the solutions or samples, and are thus characterized by positive growth (+), while optical density readings which fall below the cutoff value can be characterized by negative growth (−). A number of the OD measurements were made (OD1, OD2, OD3), and the mean value calculated.

MIC [2] | Compound | INR ([1]; 4 wt % DEDTA alone) | INR ([1]; at 8 wt %)
0.25 wt % | O=C([O-])CN(CCN(CC(=O)[O-])CC(=O)O)CC(=O)O.[Na+].[Na+] [DEDTA, disodium EDTA] | 16.7 | > 233
0.25 wt % | CC(=O)N[C@@H](CS)C(=O)O [NAC, N-Acetyl Cysteine] |  | > 26
